Measured values reported in paper PMC10765884, “MC180295 is a highly potent and selective CDK9 inhibitor with preclinical in vitro and in vivo efficacy in cancer” (Clinical Epigenetics, 2024).
Like-named read-outs stand apart in the source and are kept apart here.

Key:
[1] = Pharmacokinetics in mice; format: in vivo; conditions: mouse, plasma
Protocol: Fig. 1 MC180295 enzymatic/growth inhibition and pharmacokinetics. A In vitro activity (IC50 values) of MC180295 against a panel of CDKs. B MC180295 IC50 values against 46 cell lines from 6 different cancer types. C Pharmacokinetic analyses after oral or IV administration of low-dose (1 mg/kg IV or 2.5 mg/kg oral) MC180295 to mice. D Pharmacokinetic analyses after IP administration of 10 mg/kg MC180295 to mice.
We next studied the pharmacokinetics (PK) of MC180295.

[2] = target: CDK9/cyclin T (Homo sapiens, UniProt P50750); experiment: CDK9/cyclin T inhibition, two independent assays; format: biochemical
CDK9/cyclin T, sequence (O60563 whole entry): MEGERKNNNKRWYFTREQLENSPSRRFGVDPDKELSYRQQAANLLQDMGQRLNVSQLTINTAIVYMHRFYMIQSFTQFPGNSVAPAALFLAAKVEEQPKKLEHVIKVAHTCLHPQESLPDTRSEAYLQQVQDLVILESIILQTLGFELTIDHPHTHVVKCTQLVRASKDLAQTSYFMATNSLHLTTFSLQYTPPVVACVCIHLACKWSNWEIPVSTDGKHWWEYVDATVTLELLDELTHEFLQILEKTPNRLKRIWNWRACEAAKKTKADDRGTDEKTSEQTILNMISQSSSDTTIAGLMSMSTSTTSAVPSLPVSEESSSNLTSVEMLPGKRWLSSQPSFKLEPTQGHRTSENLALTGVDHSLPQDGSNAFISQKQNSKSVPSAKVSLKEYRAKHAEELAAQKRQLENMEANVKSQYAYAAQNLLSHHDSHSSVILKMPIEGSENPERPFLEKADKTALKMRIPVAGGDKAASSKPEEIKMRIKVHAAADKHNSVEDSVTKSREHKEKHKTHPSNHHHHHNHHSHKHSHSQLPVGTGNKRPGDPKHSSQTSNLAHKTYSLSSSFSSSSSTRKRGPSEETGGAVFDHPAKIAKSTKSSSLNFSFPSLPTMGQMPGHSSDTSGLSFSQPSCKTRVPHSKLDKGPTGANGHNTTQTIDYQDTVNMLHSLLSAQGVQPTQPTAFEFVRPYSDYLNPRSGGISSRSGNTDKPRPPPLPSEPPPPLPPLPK
CDK9/cyclin T, sequence (P50750 whole entry): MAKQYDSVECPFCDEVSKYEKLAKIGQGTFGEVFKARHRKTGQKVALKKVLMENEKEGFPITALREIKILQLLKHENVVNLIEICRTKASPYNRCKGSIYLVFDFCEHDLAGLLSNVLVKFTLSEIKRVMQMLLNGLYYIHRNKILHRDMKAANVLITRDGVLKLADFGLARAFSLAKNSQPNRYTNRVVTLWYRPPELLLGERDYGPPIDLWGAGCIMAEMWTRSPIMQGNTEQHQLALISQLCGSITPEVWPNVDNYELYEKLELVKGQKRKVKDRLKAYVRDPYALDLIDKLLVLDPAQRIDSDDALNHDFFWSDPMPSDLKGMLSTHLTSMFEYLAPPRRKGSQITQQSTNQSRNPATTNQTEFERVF
Protocol: CDK enzymatic assays were performed by Reaction Biology Corp. (Malvern, PA), using 10 µM ATP for determining MC180295 IC50 values for each CDK family member for which assays were available. Kinase enzymatic assays were also performed by Nanosyn (Santa Clara, CA), using microfluidic technology and MC180295 IC50 curves against 10 CDKs. Selectivity against CDK9 was confirmed for the enantiomers at Reaction Biology Corp. (Malvern, PA).

[3] = Liver microsome stability assay; format: in vitro ADME, mouse; conditions: pH 7.4; for remaining at 1 h, 1 µM: male, CD-1, pooled liver microsomes, Mouse liver microsomes, without NADPH, 60 min, read-out: Stability minus NADPH % Remaining @ 60 min; for half-life at 1 µM: pooled liver microsomes, Mouse (CD-1, male) liver microsomes
Protocol: Assays were conducted in 96-deep well polypropylene plates. In duplicate, test compounds (1 µM) were incubated in 0.5 mL of 100 mM potassium phosphate buffer (pH 7.4), with 0.5 mg/ml pooled liver microsomes (Life Technologies: CD-1 male mice # MSMCPL; SD male rat # RTMCPL; mixed gender human # HMMCPL. BD Genetest male beagle dog; # 452,601; male marmoset # 452,340), 2 mM tetra sodium NADPH, and 3 mM MgCl2, for 60 min in a Labnet® Vortemp incubator at 37 °C, with gentle shaking. At five time points, 75 µL of reaction mixtures were transferred on ice to a 96-shallow well stop plate containing 225 µL acetonitrile with 0.1 µM propafenone. […] Standard curves for test compounds were generated using 5 concentrations (in duplicate) that were processed as above but with no incubation time. Stop plates were centrifuged at 2000xg for 10 min in a Sorvall ST 16 centrifuge, and 170 µL of the supernatants transferred to a Waters® Aquity UPLC (Ultra Performance Liquid Chromatography) 700 µL 96-well sample plate with cap mat. A Waters® Aquity UPLC BEH C18 1.7 µM, 2.1 × 50 mm column, at 40 °C, was used to fractionate 5 µL samples, using a 3 min linear 5 to 95% acetonitrile gradient in 0.1% formic acid with a 0.75 mL/min flow rate. In tandem with UPLC, compound concentrations were analyzed using a Waters® TQ MS mass spectrometer in electrospray-positive mode (source temperature 150 °C; desolvation temperature 450 °C; desolvation flow rate of 900 L/hr). Cone voltages, collision energies, and quantitation were optimized and determined using Waters® QuanOptimize software, with propafenone as an internal standard. MC180379:CV 34; CE 34; mrm 359.15 > 114.91; MC180390 CV 34; CE 28; mrm 359.15 > 114.92. GraphPad® Prism v 5.04 was used for nonlinear fitting of time course data to generate t1/2 and CLint (intrinsic clearance) values.

Work on `Nc1nc(N[C@H]2C[C@@H]3CC[C@H]2C3)sc1C(=O)c1ccccc1[N+](=O)[O-]` (relative stereo) [MC180295] yielded an AUC(0-t) ([1]; IP 10 mg/kg) of 1370 ng·h/mL, a Cmax ([1]; IP 10 mg/kg) of 1070 ng/mL and a Tmax ([1]; IP 10 mg/kg) of 10.2 min. For the same molecule, the AUC(0-inf) ([1]; IP 10 mg/kg, read-out: AUC 0-inf_obs) was 3840 ng·h/mL, the AUC ([1]; IV - 1mg/kg) was 110 ng·h/mL and the Cmax ([1]; IV - 1mg/kg) was 210 ng/mL. The clearance ([1]; IV - 1mg/kg) was 3.67 mL/min, the Vd ([1]; IV - 1mg/kg, read-out: Vss) was 0.19 L and the AUC ([1]; Oral - 2.5mg/kg) was 71 ng·h/mL. The Cmax ([1]; Oral - 2.5mg/kg) was 96 ng/mL, the Tmax ([1]; Oral - 2.5mg/kg) was 30 min and the bioavailability ([1]; Oral - 2.5mg/kg vs IV - 1mg/kg, as fraction) was 26%. The half-life ([1]; ip, 10 mg/kg, IP 10 mg/kg, read-out: T1/2 (converted)) was 947 min, the half-life ([1]; ip, 10 mg/kg, IP at 10 mg/kg, read-out: half-life (converted)) was 948 min and the half-life ([1]; iv, 1 mg/kg, IV - 1mg/kg, read-out: T1/2 (converted)) was 51.6 min. It also gave a half-life ([1]; iv, 1 mg/kg, IV dose of 1 mg/kg, read-out: half-life (converted)) of 51.6 min, a bioavailability ([1]; oral dose of 2.5 mg/kg) of 26% and a half-life ([1]; po, 2.5 mg/kg, Oral - 2.5mg/kg, read-out: T1/2 (converted)) of 79.2 min. For the same molecule, the half-life ([1]; po, 2.5 mg/kg, oral dose of 2.5 mg/kg, read-out: half-life (converted)) was 78 min, the “selectivity for CDK9, compared to other CDKs” value [2] was 20 fold and the IC50 ([2]; based on two independent assays, read-out: IC50 toward CDK9/cyclin T) was 3 to 12 nM.
`Nc1nc(N[C@@H]2C[C@H]3CC[C@@H]2C3)sc1C(=O)c1ccccc1[N+](=O)[O-]` [MC180379] gave a remaining at 1 h, 1 µM [3] of 86% and a half-life at 1 µM [3] of 3.2 min.
For `Nc1nc(N[C@H]2C[C@@H]3CC[C@H]2C3)sc1C(=O)c1ccccc1[N+](=O)[O-]` [MC180380], the remaining at 1 h, 1 µM [3] was 88% and the half-life at 1 µM [3] was 7.1 min.
